{
  "source": "patent US5849259A",
  "about": "“3-,8-substituted deuteroporphyrin derivatives, pharmaceutical agents containing the latter and process for their production” (priority 1992, dated 1998)",
  "key": {"[1]": {"test": "Tissue concentrations by ICP-AES after 0.1 mmol/kg i.v. in nude mice with subcutaneously implanted colon cancers (HT29, WiDr)", "assay_type": "in vivo, nude mice (Balb/c nu/nu)", "procedure": "a) 9 nude mice (Balb/c nu/nu) with subcutaneously implanted colon cancers (HT29, WiDr) were each administered by i.v. 0.1 mmol/kg of the mesoporphyrin derivative of example 1b (10 mmol/l dissolved in bidistilled water, pH 7.2, 37° C.). After 0.5, 3 and 24 hours the animals were killed and dissected. The tissue concentrations were determined after corresponding working-up (HNO3 conc.) by ICP-AES and calculated for % of the administered dose per gram of tissue net weight.\ne) 9 nude mice (Balb/c nu/nu) with subcutaneously implanted colon cancers (HT29 and WiDr) were each administered by i.v. 0.1 mmol/kg of the deuteroporphyrin derivative of the compound according to example 1c (10 mmol/l dissolved in bidistilled water, pH 7.2, 37° C.). After 0.5, 3 and 24 hours, the animals were killed and dissected. The tissue concentrations were determined after corresponding working-up (HNO3 conc.) by ICP-AES and calculated for % of the administered dose per gram of tissue net weight. Moreover, tissue relaxation times T1 and T2 were determined (Bruker minispec pc 120).\n9 nude mice (Balb/c nu/nu) with subcutaneously implanted colon cancers (HT29, WiDr) were each administered by i.v. 0.1 mmol/kg of the mesoporphyrin derivative of example 8e (10 mmol/l dissolved in bidistilled water, pH 7.2, 37° C.). After 0.5, 3 and 24 hours, the animals were killed and dissected. The tissue concentrations were determined after corresponding working-up (HNO3 conc.) by ICP-AES and calculated for % of the administered dose per gram of tissue net weight.\n9 nude mice (Balb/c nu/nu) with subcutaneously implanted colon cancers (HT29, WiDr) were each administered by i.v. 0.1. mmol/kg of the mesoporphyrin derivative of example 16f (10 mmol/l dissolved in bidistilled water, pH 7.2, 37° C.). After 0.5 and 3 hours the animals were killed and dissected. The tissue concentrations were determined after corresponding working-up (HNO3 conc.) by ICP-AES and calculated for % of the administered dose per gram of tissue net weight.\n9 nude mice (Balb/c nu/nu) with subcutaneously implanted colon cancers (HT29, WiDr) were each administered by i.v. 0.1 mmol/kg of the mesoporphyrin derivative of example 18d (10 mmol/l dissolved in bidistilled water, pH 7.2, 37° C.). After 0.5 and 3 hours, the animals were killed and dissected. The tissue concentrations were determined after corresponding working-up (HNO3 conc.) by ICP-AES and calculated for % of the administered dose per gram of tissue net weight.\n9 nude mice (Balb/c nu/nu) with subcutaneously implanted colon cancers (HT29, WiDr) were each administered by i.v. 0.1 mmol/kg of the mesoporphyrin derivative of example 19e (10 mmol/l dissolved in bidistilled water, pH 7.2, 37° C.). After 0.5, 3 and 24 hours, the animals were killed and dissected. The tissue concentrations were determined after corresponding working-up (HNO3 conc.) by ICP-AES and calculated for % of the administered dose per gram of tissue net weight."}, "[2]": {"system": "Novikoff-hepatoma", "test": "Signal intensity change in tissues of tumor-bearing (Novikoff-hepatoma, i.m.) nude rats, Bruker Biospec 2.35 Tesla, MSSE", "assay_type": "in vivo, nude rats (LEW/Mol rnu/rnu)", "details": "0.1 mmol/kg i.v.", "text": "The measurements were made with a multi slice single echo sequence (MSSE). […] […] The relative intensities relative to the respective initial intensity (=1.00 set) are indicated."}, "[3]": {"system": "VX-2 carcinoma", "test": "Signal intensity in tissues of tumor-bearing rabbit (VX-2 carcinoma), Siemens Magneton 1.5 Tesla", "assay_type": "in vivo", "text": "On a Siemens Magneton^(R) (1.5 Tesla; 64 MHz), the signal intensity in various tissues of a tumor-bearing rabbit [hare rabbit, Wulf, female, approximately 4 kg body weight (n=3), tumor of VX-2 carcinoma implanted intramuscularly about 3 weeks before the beginning of the test) was studied after the i.v. administration of […] body weight (corresponding to 0.05 mmol/kg of gadolinium) of the compound according to the invention produced according to Example 1c. The measurement took place with the following imaging parameters: T1 -weighted spin echo sequence: TR : 350 ms, TE : 15 ms, layer orientation: coronary, layer thickness 3 mm, number of averages: 4 per layer, field of view: 150 mm, matrix 256^2, 4-6 layers 1 echo per imaging sequence.\nThe relative signal intensities in various tissues are represented in FIG. 4. The output signal intensity (=SIprecontrast) in the various tissues was set equal to 1 in each case."}, "[4]": {"details": "0.0025 mmol/kg i.v. (corresponding to 0.05 mmol/kg of gadolinium)"}},
  "data": [
    {"substance": "N,N'-Bis[9-carboxylato-2,5,8-tris(carboxylatomethyl)-2,5,8-triazanonyl-carbamoyl]-mesoporphyrin-IX-13,17-diamide, digadolinium complex, disodium salt [Example 1c]", "values": [
      {"measurement": "tissue concentration, kidneys", "setting": "[1]; 0.5 hour p.i.", "result": "4.06 ± 1.01 % of the administered dose per gram of tissue net weight"},
      {"measurement": "tissue concentration, kidneys", "setting": "[1]; 3 hours p.i.", "result": "4.47 ± 1.63 % of the administered dose per gram of tissue net weight"},
      {"measurement": "tissue concentration, kidneys", "setting": "[1]; 24 hours p.i.", "result": "4.20 ± 0.27 % of the administered dose per gram of tissue net weight"},
      {"measurement": "elimination route", "setting": "[2]", "result": "eliminated mainly renally"},
      {"measurement": "average enhancement, Kidneys", "setting": "[2]; 1 min", "result": "1.67 ± 0.35"},
      {"measurement": "average enhancement, Liver", "setting": "[2]; 1 min", "result": "1.43 ± 0.24"},
      {"measurement": "average enhancement, Muscle", "setting": "[2]; 1 min", "result": "1.60 ± 0.01"},
      {"measurement": "average enhancement, Tumor", "setting": "[2]; 1 min", "result": "1.63 ± 0.24"},
      {"measurement": "average enhancement, Kidneys", "setting": "[2]; 15 min", "result": "2.13 ± 0.28"},
      {"measurement": "average enhancement, Liver", "setting": "[2]; 15 min", "result": "1.34 ± 0.22"},
      {"measurement": "average enhancement, Muscle", "setting": "[2]; 15 min", "result": "1.54 ± 0.06"},
      {"measurement": "average enhancement, Tumor", "setting": "[2]; 15 min", "result": "1.71 ± 0.19"},
      {"measurement": "average enhancement, Kidneys", "setting": "[2]; 30 min", "result": "2.14 ± 0.38"},
      {"measurement": "average enhancement, Liver", "setting": "[2]; 30 min", "result": "1.31 ± 0.21"},
      {"measurement": "average enhancement, Muscle", "setting": "[2]; 30 min", "result": "1.47 ± 0.08"},
      {"measurement": "average enhancement, Tumor", "setting": "[2]; 30 min", "result": "1.72 ± 0.23"},
      {"measurement": "average enhancement, Kidneys", "setting": "[2]; 45 min", "result": "2.10 ± 0.30"},
      {"measurement": "average enhancement, Liver", "setting": "[2]; 45 min", "result": "1.17 ± 0.16"},
      {"measurement": "average enhancement, Muscle", "setting": "[2]; 45 min", "result": "1.41 ± 0.10"},
      {"measurement": "average enhancement, Tumor", "setting": "[2]; 45 min", "result": "1.79 ± 0.21"},
      {"measurement": "average enhancement, Kidneys", "setting": "[2]; 60 min", "result": "2.12 ± 0.19"},
      {"measurement": "average enhancement, Liver", "setting": "[2]; 60 min", "result": "1.31 ± 0.09"},
      {"measurement": "average enhancement, Muscle", "setting": "[2]; 60 min", "result": "1.33 ± 0.05"},
      {"measurement": "average enhancement, Tumor", "setting": "[2]; 60 min", "result": "1.78 ± 0.24"},
      {"measurement": "average enhancement, Kidneys", "setting": "[2]; 75 min", "result": "1.93 ± 0.19"},
      {"measurement": "average enhancement, Liver", "setting": "[2]; 75 min", "result": "1.37 ± 0.05"},
      {"measurement": "average enhancement, Muscle", "setting": "[2]; 75 min", "result": "1.37 ± 0.01"},
      {"measurement": "average enhancement, Tumor", "setting": "[2]; 75 min", "result": "1.64 ± 0.17"},
      {"measurement": "average enhancement, Kidneys", "setting": "[2]; 90 min", "result": "1.96 ± 0.08"},
      {"measurement": "average enhancement, Liver", "setting": "[2]; 90 min", "result": "1.22 ± 0.24"},
      {"measurement": "average enhancement, Muscle", "setting": "[2]; 90 min", "result": "1.24 ± 0.03"},
      {"measurement": "average enhancement, Tumor", "setting": "[2]; 90 min", "result": "1.75 ± 0.27"},
      {"measurement": "average enhancement, Kidneys", "setting": "[2]; 120 min", "result": "1.92 ± 0.33"},
      {"measurement": "average enhancement, Liver", "setting": "[2]; 120 min", "result": "1.23 ± 0.07"},
      {"measurement": "average enhancement, Muscle", "setting": "[2]; 120 min", "result": "1.28 ± 0.08"},
      {"measurement": "average enhancement, Tumor", "setting": "[2]; 120 min", "result": "1.77 ± 0.23"},
      {"measurement": "average enhancement, Kidneys", "setting": "[2]; 150 min", "result": "1.86 ± 0.18"},
      {"measurement": "average enhancement, Liver", "setting": "[2]; 150 min", "result": "1.16 ± 0.22"},
      {"measurement": "average enhancement, Muscle", "setting": "[2]; 150 min", "result": "1.20 ± 0.06"},
      {"measurement": "average enhancement, Tumor", "setting": "[2]; 150 min", "result": "1.73 ± 0.23"},
      {"measurement": "average enhancement, Kidneys", "setting": "[2]; 180 min", "result": "1.84 ± 0.24"},
      {"measurement": "average enhancement, Liver", "setting": "[2]; 180 min", "result": "1.07 ± 0.20"},
      {"measurement": "average enhancement, Muscle", "setting": "[2]; 180 min", "result": "1.15 ± 0.04"},
      {"measurement": "average enhancement, Tumor", "setting": "[2]; 180 min", "result": "1.85 ± 0.09"},
      {"measurement": "average enhancement, Kidneys", "setting": "[2]; 190 min", "result": "1.73 ± 0.00"},
      {"measurement": "average enhancement, Liver", "setting": "[2]; 190 min", "result": "1.27 ± 0.00"},
      {"measurement": "average enhancement, Muscle", "setting": "[2]; 190 min", "result": "1.21 ± 0.00"},
      {"measurement": "average enhancement, Tumor", "setting": "[2]; 190 min", "result": "1.45 ± 0.00"},
      {"measurement": "signal intensity, liver and muscles", "setting": "[2]; after 2-3 hours", "result": "the initial intensity almost returned"},
      {"measurement": "increase in the intensity, studied tissues", "setting": "[2]; directly after administration", "result": "~60", "unit": "%"},
      {"measurement": "signal intensity, tumor", "setting": "[2]; during the observation time", "result": "remained at an almost unchanged high level"},
      {"measurement": "signal intensity, kidneys relative to tumors", "setting": "[2]; up to 150 minutes", "result": "high above that which could be determined in the tumors"},
      {"measurement": "enhancement, implanted tumor", "setting": "[3]; [4]", "result": "good long acting enhancement"},
      {"measurement": "enhancement, majority of the lymph nodes on the tumor-bearing side", "setting": "[3]; [4]", "result": "good long acting enhancement"},
      {"measurement": "diagnosis of metastasis of the lymph nodes", "setting": "[3]; confirmed by histological study", "result": "a metastasis attack of the lymph nodes could therefore be diagnosed"}
    ]}
  ]
}
